In brackets after ≈: the same amount, converted by molar mass.
Key:
[1] = system: Escherichia coli (Ec-9), AAC(6')-1; test: MIC, two-fold agar dilution; format: cell-based; conditions: 18 h, Table 3, Mueller-Hinton agar, 10^-4 dilution, enzyme AAC(6')-1
[2] = system: Neisseria gonorrhoeae (Ng-1); test: MIC, two-fold agar dilution; format: cell-based; conditions: 18 h, Table 3, GC agar, 10^-2 dilution
[3] = system: Serratia marcescens (Sm-2); test: MIC, two-fold agar dilution; format: cell-based; conditions: 18 h, Table 3, Mueller-Hinton agar, 10^-4 dilution
[4] = system: Mycobacterium phlei D88 (Mp-1); test: MIC, two-fold agar dilution; format: cell-based; conditions: Mycolicibacterium phlei, 18 h; Table 3; Mueller-Hinton agar, 10^-4 dilution
[5] = system: Mycobacterium 607 (M6-1); test: MIC, two-fold agar dilution; format: cell-based; conditions: 18 h, Table 3, Mueller-Hinton agar, 10^-4 dilution
[6] = system: Staphylococcus aureus (Sa-77), ANT(4'); test: MIC, two-fold agar dilution; format: cell-based; conditions: 18 h
[7] = system: Streptococcus viridans (Sv-1); test: MIC, two-fold agar dilution; format: cell-based; conditions: 18 h, Table 3, GC agar, 10^-2 dilution
[8] = solubility; format: physicochemical; conditions: hydrochloride salt
[9] = system: Streptococcus pyogenes (Sp-3); test: MIC, two-fold agar dilution; format: cell-based; conditions: 18 h, Table 3, GC agar, 10^-2 dilution
[10] = system: Proteus stuartii (Ps-2), AAC(2'); test: MIC, two-fold agar dilution; format: cell-based; conditions: 18 h; Table 3; Mueller-Hinton agar, 10^-4 dilution; enzyme AAC(2')
[11] = system: Enterobacter cloacae (El-35), AAC(3)-3; test: MIC, two-fold agar dilution; format: cell-based; conditions: 18 h, Table 3, Mueller-Hinton agar, 10^-4 dilution, enzyme AAC(3)-3
[12] = system: Escherichia coli (Ec-62), AAC(3)- 1; test: MIC, two-fold agar dilution; format: cell-based; conditions: 18 h, Table 3, Mueller-Hinton agar, 10^-4 dilution, enzyme AAC(3)- 1
[13] = system: Staphylococcus aureus Smith (Sa-2); test: MIC, two-fold agar dilution; format: cell-based; conditions: 18 h, Table 3, Mueller-Hinton agar, 10^-4 dilution
[14] = system: Mycobacterium ranae ATCC 110 (Mr-1); test: MIC, two-fold agar dilution; format: cell-based; conditions: ATCC110, 18 h, Table 3, Mueller-Hinton agar, 10^-4 dilution
[15] = system: Klebsiella pneumoniae (Kp-2); test: MIC, two-fold agar dilution; format: cell-based; conditions: 18 h, Table 3, Mueller-Hinton agar, 10^-4 dilution, read-out: MIC
Procedure: (§1) The minimum inhibitory concentrations (MIC) of Bu-2349A and B were determined against a wide variety of bacteria by the two-fold agar dilution method. Mueller-Hinton agar medium was generally used for the determination of bacterial MIC except for species of Streptococcus, Neisseria and Hemophilus for which Gonococcus agar medium (GC agar, Nissui Co., Tokyo) was used. Gifu anaerobe agar medium (GAM agar, Eiken Co., Tokyo) was used for anaerobic bacteria. The MIC's were determined after overnight incubation at 37° C. with an initial inoculum equivalent to a 10^-4 dilution of an 18-hour culture for the aerobic and anaerobic bacteria, except for Streptococcus, Neisseria and Hemophilus for which a 10^-2 dilution was used.
(§2) The influence of inoculum size on MIC was tested on Mueller-Hinton agar using an inoculum of […], 10^-2 or 10^-4 dilution of the overnight culture of test organisms.
(§3) The effect of media pH on the MIC's of Bu-2349A was determined at three pH levels (6, 7 and 8) using Mueller-Hinton agar.
(§4) The media effect on the MIC's of Bu-2349A was tested using four kinds of assay media: Mueller-Hinton agar (MHA), nutrient agar (NA), heart infusion agar (HIA) and brain heart infusion agar (BHIA). The pH was adjusted at 7 and a 10^-4 dilution of overnight culture was used for the inoculum.

[16] = system: Staphylococcus aureus 209P (Sa-1); test: MIC, two-fold agar dilution; format: cell-based; conditions: 18 h, Table 3, Mueller-Hinton agar, 10^-4 dilution
Procedure: as §1, §2, §3, §4

[17] = system: Pseudomonas aeruginosa (Pa-3); test: MIC, two-fold agar dilution; format: cell-based; conditions: 18 h, Table 3, Mueller-Hinton agar, 10^-4 dilution
Procedure: as §1, §2, §3, §4

[18] = system: Bacillus subtilis PCI 219 (Bs-1); test: MIC, two-fold agar dilution; format: cell-based; conditions: 18 h, Table 3, Mueller-Hinton agar, 10^-4 dilution
Procedure: as §1, §2, §3, §4

[19] = system: Escherichia coli Juhl (Ec-3); test: MIC, two-fold agar dilution; format: cell-based; conditions: 18 h, Table 3, Mueller-Hinton agar, 10^-4 dilution
Procedure: as §1, §2, §3, §4

[20] = system: Proteus morganii (Pg-1); test: MIC, two-fold agar dilution; format: cell-based; conditions: Morganella morganii, 18 h, Table 3; Mueller-Hinton agar, 10^-4 dilution
Procedure: as §1, §2, §3, §4

[21] = system: Escherichia coli ML-1630 (Ec-5), APH(3')-1; test: MIC, two-fold agar dilution; format: cell-based; conditions: 18 h, Table 3, Mueller-Hinton agar, 10^-4 dilution, enzyme APH(3')-1
Procedure: as §1, §2, §3, §4

[22] = system: Proteus mirabilis (Pm-1); test: MIC, two-fold agar dilution; format: cell-based; conditions: Proteus mirabilis, 18 h, Table 3; Mueller-Hinton agar, 10^-4 dilution; read-out: MIC
Procedure: as §1, §2, §3, §4

[23] = system: Hemophylus influenzae (He-2); test: MIC, two-fold agar dilution; format: cell-based; conditions: 18 h; Table 3; GC agar, 10^-2 dilution
[24] = system: Proteus rettgeri (Pr-2); test: MIC, two-fold agar dilution; format: cell-based; conditions: Providencia rettgeri, 18 h; Table 3; Mueller-Hinton agar, 10^-4 dilution
[25] = system: Escherichia coli (Ec-49), APH(3')-2; test: MIC, two-fold agar dilution; format: cell-based; conditions: 18 h, Table 3, Mueller-Hinton agar, 10^-4 dilution, enzyme APH(3')-2
[26] = system: gram-positive and gram-negative bacteria; test: in vitro antibacterial activity, overall statements; format: cell-based
Procedure: as §1, §2, §3, §4

[27] = system: Proteus vulgaris (Pv-1); test: MIC, two-fold agar dilution; format: cell-based; conditions: 18 h, Table 3, Mueller-Hinton agar, 10^-4 dilution
[28] = system: Neisseria meningitidis (Nm-1); test: MIC, two-fold agar dilution; format: cell-based; conditions: 18 h, Table 3, GC agar, 10^-2 dilution
[29] = system: Streptococcus pneumoniae (Dp-4); test: MIC, two-fold agar dilution; format: cell-based; conditions: 18 h, Table 3, GC agar, 10^-2 dilution
[30] = system: Klebsiella pneumoniae (Kp-33), AAC(3)-3; test: MIC, two-fold agar dilution; format: cell-based; conditions: 18 h, Table 3, Mueller-Hinton agar, 10^-4 dilution, enzyme AAC(3)-3
[31] = system: Staphylococcus aureus Terajima (Sa-33); test: MIC, two-fold agar dilution; format: cell-based; conditions: 18 h, Table 3, Mueller-Hinton agar, 10^-4 dilution
[32] = system: Escherichia coli NIHJ (Ec-1); test: MIC, two-fold agar dilution; format: cell-based; conditions: 18 h, Table 3, Mueller-Hinton agar, 10^-4 dilution
[33] = system: Escherichia coli (Ec-72), ANT(2"); test: MIC, two-fold agar dilution; format: cell-based; conditions: 18 h, Table 3, Mueller-Hinton agar, 10^-4 dilution, enzyme ANT(2")
[34] = system: Staphylococcus epidermidis (Si-2), ANT (4'); test: MIC, two-fold agar dilution; format: cell-based; conditions: 18 h, Table 3, Mueller-Hinton agar, 10^-4 dilution, enzyme ANT (4')

Q: Which MIC [1] does the source give for `C=C1OC(OC2C(CO)OC(Oc3ccc(C(=O)NCCCNCCCCN)cc3)C2O)C(O)C(OC2OC(CO)C(OC3OC(C)C(N)C(O)C3NC(=O)C(C)N)C(O)C2O)C1O` (stereo not shown) [Bu-2349B] here?
A: 0.8 µg/mL (≈ 0.871 µM)

Q: What about the MIC [2] of the same compound?
A: > 100 µg/mL

Q: What about the MIC [3] of the same compound?
A: 50 µg/mL (≈ 54.4 µM)

Q: And the MIC [4]?
A: 25 µg/mL (≈ 27.2 µM)

Q: And the MIC [5]?
A: 12.5 µg/mL (≈ 13.6 µM)

Q: And the MIC [6]?
A: 50 µg/mL (≈ 54.4 µM)

Q: What about the MIC [7] of the same compound?
A: > 100 µg/mL

Q: What about the “solubility in methanol, ethanol, dimethylsulfoxide and dimethylformamide” value ([8]; methanol, ethanol, dimethylsulfoxide and dimethylformamide) of the same compound?
A: slightly soluble

Q: And the “solubility in other common organic solvents” value ([8]; other common organic solvents)?
A: practically insoluble

Q: And the solubility in water ([8]; water)?
A: soluble

Q: And the MIC [9]?
A: > 100 µg/mL

Q: And the MIC [10]?
A: 1.6 µg/mL (≈ 1.74 µM)

Q: What about the MIC [11] of the same compound?
A: 12.5 µg/mL (≈ 13.6 µM)

Q: What about the MIC [12] of the same compound?
A: 12.5 µg/mL (≈ 13.6 µM)

Q: And the MIC [13]?
A: 12.5 µg/mL (≈ 13.6 µM)

Q: And the MIC [14]?
A: 25 µg/mL (≈ 27.2 µM)

Q: And the MIC [15]?
A: 12.5 µg/mL (≈ 13.6 µM)

Q: And the MIC [16]?
A: 12.5 µg/mL (≈ 13.6 µM)

Q: What about the MIC [17] of the same compound?
A: 100 µg/mL (≈ 109 µM)

Q: What about the MIC [18] of the same compound?
A: 25 µg/mL (≈ 27.2 µM)

Q: And the MIC [19]?
A: 6.3 µg/mL (≈ 6.86 µM)

Q: What about the MIC [20] of the same compound?
A: 100 µg/mL (≈ 109 µM)

Q: What about the MIC [21] of the same compound?
A: 6.3 µg/mL (≈ 6.86 µM)

Q: What about the MIC [22] of the same compound?
A: 25 µg/mL (≈ 27.2 µM)

Q: And the MIC [23]?
A: > 100 µg/mL

Q: What about the MIC [24] of the same compound?
A: 3.1 µg/mL (≈ 3.37 µM)

Q: What about the MIC [25] of the same compound?
A: 3.1 µg/mL (≈ 3.37 µM)

Q: What about the “inhibitory activity both in vitro and in vivo” value ([26]; gram-positive and gram-negative bacteria, including aminoglycoside-resistant bacteria, summary statement) of the same compound?
A: marked inhibitory activity

Q: And the antibacterial activity ([26]; including bacteria which produce aminoglycoside-modifying enzymes)?
A: active

Q: And the MIC [27]?
A: 6.3 µg/mL (≈ 6.86 µM)

Q: And the MIC [28]?
A: > 100 µg/mL

Q: And the MIC [29]?
A: > 100 µg/mL

Q: And the MIC [30]?
A: 12.5 µg/mL (≈ 13.6 µM)

Q: What about the MIC [31] of the same compound?
A: 6.3 µg/mL (≈ 6.86 µM)

Q: And the MIC [32]?
A: 3.1 µg/mL (≈ 3.37 µM)

Q: And the MIC [33]?
A: 6.3 µg/mL (≈ 6.86 µM)

Q: And the MIC [34]?
A: 25 µg/mL (≈ 27.2 µM)

From patent publication US4250170A, “Antibacterial agents Bu-2349A and B and method of using same” (Bristol-Myers Company, priority 1979, dated 1981)
